Measurements reported in ChEMBL document CHEMBL1157632, “Discovery of dipeptides with high affinity to the specific binding site for substance P1-7” (J Med Chem, 2010).
The source made the active and inactive calls. The calls are words filed in the database; no cut-off is given here. Peptide text beside a SMILES is read from it.

Target: Neuromedin-K receptor (NK-3) (Homo sapiens) (UniProt P29371)
Assay: Displacement of [MePhe7]-NKB from human recombinant NK3 receptor at 10 uM

Sequence of Neuromedin-K receptor (NK-3) (Homo sapiens) (P29371 whole entry, looked up): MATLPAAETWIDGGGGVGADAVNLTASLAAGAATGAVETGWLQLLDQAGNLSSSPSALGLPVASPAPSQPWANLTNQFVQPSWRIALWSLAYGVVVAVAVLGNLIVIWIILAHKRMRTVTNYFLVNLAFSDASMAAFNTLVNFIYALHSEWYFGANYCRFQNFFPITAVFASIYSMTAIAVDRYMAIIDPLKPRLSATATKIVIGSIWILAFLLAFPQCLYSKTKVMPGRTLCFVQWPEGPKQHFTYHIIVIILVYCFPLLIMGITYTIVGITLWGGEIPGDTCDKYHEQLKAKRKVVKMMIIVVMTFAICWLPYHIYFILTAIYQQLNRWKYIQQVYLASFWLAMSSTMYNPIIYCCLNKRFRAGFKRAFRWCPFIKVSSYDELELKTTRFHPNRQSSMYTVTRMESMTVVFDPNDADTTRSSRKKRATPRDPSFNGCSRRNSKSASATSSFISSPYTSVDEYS

Activity: inactive
Compound: NC(=O)[C@H](Cc1ccccc1)NC(=O)[C@@H](N)Cc1ccccc1 (H-Phe-Phe-NH2)
